Data: ChEMBL document CHEMBL1124661, “Synthesis of 8-substituted derivatives of the 2-deoxy analogue of 3-deoxy-beta-D-manno-2-octulopyranosonic acid (2-deoxy-beta-KDO) as inhibitors of 3-deoxy-D-manno-octulosonate cytidylyltransferase” (J Med Chem, 1989)
pIC50: −log10 of the molar value.

Tests used:
[1] = Activity against CMP-KDO synthetase (CKS) from Escherichia coli D21,the compound gave rise to a strongly interfering absorption in the thiobarbituric acid assay
[2] = Activity against CMP-KDO synthetase-KDO-lipid A transferase (CKS-KLT) assay from Escherichia coli D21
[3] = Activity against CMP-KDO synthetase (CKS) from Escherichia coli D21
[4] = Activity against CMP-KDO synthetase (CKS) from Escherichia coli D21, the compound gave rise to a strongly interfering absorption in the thiobarbituric acid assay

SMILES	IC50 [1]	pIC50 [2]	pIC50 [3]	IC50 [4]
NC[C@@H](O)[C@H]1O[C@H](C(=O)O)C[C@@H](O)[C@H]1O	Strongly interfering absorption	5.13		
O=C(O)[C@@H]1C[C@@H](O)[C@@H](O)[C@@H]([C@H](O)CO)O1		5.00	4.74	
O=C(O)[C@@H]1C[C@@H](O)[C@@H](O)[C@@H]([C@H](O)CF)O1		5.32	4.62	
N.[N-]=[N+]=NC[C@@H](O)[C@H]1O[C@H](C(=O)O)C[C@@H](O)[C@H]1O		4.10		Strongly interfering absorption
N.O=C(O)[C@@H]1C[C@@H](O)[C@@H](O)[C@@H]([C@H](O)CS)O1	Strongly interfering absorption	4.77		
C[C@@H](O)[C@H]1O[C@H](C(=O)O)C[C@@H](O)[C@H]1O		5.17	4.66	
